Reference: a melting point compilation (Tetko et al.; mined from patent text by program, amines drawn as free bases though some values may be those of a salt)

Point of comparison: `CS(=O)(=O)C(=C1CN(C(c2ccccc2)c2ccccc2)C1)c1ccc(Cl)c(Cl)c1`, melting point 170 °C. Against it:
- CC1(C=C(Cl)Cl)CN(C(=O)Nc2ccc(OC(F)(F)F)cc2)N=C1c1ccc(Cl)cc1 (stereo not given) — lower, 138 to 141 °C
- CC(C)(C)NC(=NC#N)Nc1cnc2ccccc2c1 — higher, 228 to 229 °C
- CC1(C)Oc2c(ccc3oc(C(=O)O)cc(=O)c23)-c2ccc(Cl)cc21 — higher, 257 to 258 °C
- c1ccn(Nc2ccncc2)c1 — lower, 150 °C
- COC[C@@H](OC)[C@@H](OC)[C@H](OC)[C@H](CN(C)C(=O)c1ccc2n1Cc1ccccc1N(C(=O)c1ccc(C3=CCCCC3)c(C)c1)C2)OC — lower, 68 to 83 °C
- COc1cc2nc(C)nc(N3CCN(C(=O)Nc4ccc(Oc5ccccc5)cc4)CC3)c2cc1OC — lower, 146 to 147 °C
- CCCCOC(=O)c1cc(NC(=O)C2=C(C)OCCS2)ccc1Cl — lower, 71 to 73 °C
- COc1ccc(-n2cc(C(=O)O)c(C)n2)cc1 — higher, 176 to 178 °C
- Cc1cc(/C=C/C(=O)O)c(C)c([N+](=O)[O-])c1 — higher, 228 °C
- Cc1cc(C#CC2CC2)cc(C)c1Oc1ccc(N)c(Nc2ccc(C#N)cc2)n1 — lower, 82 to 85 °C
- O=C(O)c1cc(OCc2ccsc2)c(-c2ccccc2)c([N+](=O)[O-])c1 — higher, 184 to 186 °C
- CC(=NO)C(=O)C(C)(C)C — lower, 107 to 110 °C
- O=C(SCC1C(=O)OCC1c1ccccc1)c1ccccc1F (stereo not given) — lower, 92 to 94 °C
- Oc1ccc(C2CCC(=CCC3OCCO3)CC2)cc1 (stereo not given) — lower, 126 °C
- CCOC(=O)C(Br)=NNc1ccc(F)cc1 — lower, 99 to 100 °C
- CCCCc1cc(-c2ccc(S(N)(=O)=O)cc2)n(-c2ccc(OC)cc2)c1 — lower, 115 to 117 °C
- Nc1cc2c(cn1)CC(c1ccc(Cl)cc1Cl)c1ccccc1-2 (stereo not given) — higher, 189 to 193 °C
- CC(C)(C)c1cc2c(c(C(=O)Nc3ccc(S(=O)(=O)C(F)(F)F)cc3Cl)c1O)CCO2 — higher, 201 to 202 °C
- CC(C)n1nc(-c2cnc(N)nc2-c2ccccc2Cl)ccc1=O — higher, 227 to 228 °C
- Nc1cccc(S(=O)(=O)NCc2ccncc2)c1 — lower, 139 °C
- CN1CC(c2cc(CCc3ccc(F)cc3)ccn2)=C(O)C1=O — lower, 167 to 168 °C
- CS(=O)(=O)c1ccc(-c2oc(C(=O)O)cc(=O)c2Oc2ccc(F)cc2F)cc1 — higher, 245 °C
- Cc1oc(-c2ccco2)nc1COc1ccc(COc2nn(Cc3ccccc3)cc2CO)cn1 — lower, 94 to 95 °C
- CN(C)C=Nc1sc([N+](=O)[O-])cc1C#N — higher, 230 °C
- CCCCCCCCCCCCCCCCOCCC(O)CO (stereo not given) — lower, 60 to 61 °C
- CN1C(=O)CN=C(c2ccccc2F)c2c1ccc(NC(=O)NC(C)(C)C)c2Cl — higher, 206 to 208 °C
- COc1ccc2c(c1)C(=O)c1sc(-c3ccccc3)nc1C2=O — higher, > 260 °C
- CCOCCn1c(COc2cccc(CO)c2)nc2ccccc21 — lower, 105 to 107 °C
- OC(CCCn1ccnc1)c1ccc(Cl)cc1Cl (stereo not given) — lower, 91.5 to 94 °C
- Cc1cnc2c(S(=O)(=O)N[C@@H](CCCc3cn(C(c4ccccc4)(c4ccccc4)c4ccccc4)cn3)C(=O)O)cccc2c1 — the same, 170 °C
- CCNc1c(C(=O)OCC)c(=O)n(CC)c2nc(C)ccc12 — lower, 133 to 136 °C
- COc1cc(C(=O)O)ccc1Cc1cn(C)c2ccc(NC(=O)NC3CCCC3)cc12 — higher, 203 to 206 °C
- Cc1cc2c3c(ccc2cc1C(=O)c1ccc(Cl)cc1)OC(=O)C3(C)C — lower, 130 to 132 °C
- Nc1cccc(O)c1NC(=O)Nc1cccc(C(F)(F)F)c1 — higher, 188 to 189 °C
- N#CSc1cc2sc(NC(=O)C3CC3)nc2cc1F — higher, 256 °C
- O=C1C=C(Nc2ccccc2)C(=O)c2nccnc21 — higher, 203 to 205 °C
- NCC1CCN(c2nccc(C(N)=O)n2)CC1 — lower, 144 to 148 °C
- C=CCCC(F)c1cccc(C2(c3ccc(OC(F)F)cc3)N=C(N)N(C)C2=O)c1 (stereo not given) — lower, 50 to 55 °C
- CC(=O)N1CCC(CC(O)c2ccc(N(C)C)cc2)CC1 (stereo not given) — lower, 119 to 120 °C
- CCCCCCC/C=C/C(=O)Nc1ccccc1 — lower, 54 to 55 °C
- CCCCCCCCCCCCCCCCCCON1C(=O)c2ccccc2C1=O — lower, 82 to 88 °C
- CC(C)c1ccc(NC(=O)OC(C)(C)C)c(N)c1 — lower, 100 to 101 °C
- C=C(C)C1=CC(C)(C)Oc2c(OCC)cc(Cc3cnc(N)nc3N)cc21 — higher, 188 to 189 °C
- CCON=C(C(C)=NO)c1ccc(OC[Si](C)(C)c2ccc(F)cc2)cc1 — lower, 100 to 102 °C
- COc1cc2c(c3c1OC(C)(C)C3)C(c1cccc(-c3ccc(NC(=O)CNC(C)=O)cc3)c1)=NC(C)(C)C2 — higher, 218 to 221 °C
- Cc1ccc(S(=O)(=O)OC[C@H]2CCc3ccc4ccccc4c3O2)cc1 — lower, 107 to 111 °C
- COCCNC(=O)c1cccc(-c2cccc3cc(COc4cc(C(F)(F)F)ccn4)sc23)c1 — higher, 186 to 187 °C
- O=C(O)c1ccc(OCCCCCCc2cccc(O)c2O)cc1 — not separable, 170 to 172 °C
- CNC(=O)C(Cc1ccc(OC)cc1)NC(=O)C(=CCC(=O)OC)CC(C)C (stereo not given) — lower, 142 to 144 °C
- CCCCCCCCCCCCC/C=C(/C(=O)Nc1ccc(C(=O)O)cc1)c1ccc2c(c1)C(C)(C)CCC2(C)C — lower, 59 to 60 °C
- CCC(C)(C)Nc1c(NCc2ccc(F)cc2F)c(=O)c1=O — higher, 242 to 244 °C
- CC(O)C1C(=O)N2C(C(=O)OCc3ccccc3)=C(S(=O)c3ccccc3)CC12 (stereo not given) — lower, 104 to 109 °C
- CC(O)(c1ccc(OCc2ccc3ccccc3n2)cc1)c1ccc(OCc2ccc3ccccc3n2)cc1 — lower, 129 to 131 °C
- CCOC(=O)c1nc2c(C(=O)OCC)cccn2c1[N+](=O)[O-] — lower, 139 to 140 °C
- CC1(C)OC(=O)C(=CSCc2cccs2)C(=O)O1 — lower, 109 to 111 °C
- CCc1nn(-c2c(Cl)cc(Cl)cc2Cl)c(N)c1C(N)=O — higher, 186 to 188 °C
- c1cc2ccc3occc3c2[nH]1 — lower, 141 to 144 °C
- CN(C)C(=O)Cc1ccc(CNC(=O)[C@@H](CCCNC(N)=N[N+](=O)[O-])NC(=O)C(c2ccccc2)c2ccccc2)cc1 — higher, 198 to 200 °C
- O=[N+]([O-])C(=Cc1ccc(F)cc1)c1ccc(F)cc1 — lower, 107 to 109 °C
- Cc1nc2n(C)c(C)cn2c(=O)c1CCN1CCC(n2ccc3ccccc32)CC1 — lower, 166 °C
- CC(=O)c1ccc(-c2ccccc2)c(F)c1 — lower, 97 to 97.5 °C
- CCCCNC(=O)OC1c2cc(Cl)ccc2C(=O)N1c1ccc2ccc(Cl)nc2n1 (stereo not given) — higher, 228 to 230 °C
- CCc1cc(C(=O)C(c2ccc(O)cc2)c2ccc(O)cc2)cc(C(C)(c2ccc(O)cc2)c2ccc(O)cc2)c1 — lower, 144 to 146 °C
- CN(C)c1ccc(S(=O)(=O)Nc2cnc3ccc(Cl)cc3n2)cc1 — higher, 206 to 207 °C
- c1ccc(OCCSCc2nnc(-c3ccc(OCCCCN4CCOCC4)cc3)o2)cc1 — lower, 64 to 67 °C
- NC(=O)c1cn(C2CCCC2)nc1N — higher, 179 to 181 °C
- CCSc1cn(C)cc(-c2cccc(C(F)(F)F)c2)c1=O — lower, 84 to 85 °C
- NC(=O)c1cnn(C2OC(CO)C(O)C2O)n1 (stereo not given) — lower, 150 to 151 °C
- CCc1ccccc1/C(N)=C1\Sc2ccccc2C1=O — lower, 132 to 133 °C
- CCCCCCCCCC(=O)Nc1ccc2c(c1)C(=O)N(CCN1CCC(c3noc4cc(F)ccc34)CC1)C2=O — lower, 159 to 160 °C
- COc1cc(COc2nn(-c3ccccc3)cc2/C=C/c2nc(C(=O)O)cs2)ccc1OCc1nc(-c2ccco2)oc1C — not separable, 170 to 172 °C
- O=[N+]([O-])c1ccc(OCCN2CC=C(c3ccc(F)cc3)CC2)cc1 — lower, 104 to 107 °C
- O=C(Nc1ccc(OCCCN2CCOCC2)c2ccccc12)c1cc(F)cc(N2CCCCC2)c1 — lower, 90 to 92 °C
- CCCCSc1ccc(C2CC(=O)C(C(=O)CC)=C(O)C2)cc1 (stereo not given) — lower, 79 °C
- O=C(c1cc(Cl)ccc1Cl)N1CCNC1=Nc1ccc(Cl)cc1Cl — higher, 205 to 206 °C
- O=C(NC(Cc1c[nH]c2ccccc12)C(=O)NCc1cc(C(F)(F)F)cc(C(F)(F)F)c1)c1ccccc1 (stereo not given) — higher, 182 to 184 °C
- O=[N+]([O-])c1ccc(-c2oncc2CO)cc1 — not separable, 170 to 171 °C
- CCCCCCCCCCCCCCS(=O)(=O)c1cc(S(C)(=O)=O)ccc1-n1oc(C(C)(C)C)c(CCl)c1=O — lower, 110 to 111 °C
- NC(=O)c1cc2cc(OCC(O)CCl)ccc2o1 (stereo not given) — lower, 136 to 138 °C
- CC1C(=CC2C(C(=O)O)C2(C)C)C1(F)F (stereo not given) — lower, 97.7 °C
- C#CCNc1ccc(C(C)=O)cc1 — lower, 97 to 100 °C
- Cc1nnc2n1-c1ccc(Br)cc1C(c1ccccc1)=NC2 — higher, 268 to 270 °C
- CC(=O)Oc1ccc2nc(C#N)nc(Cl)c2c1 — lower, 145 to 147 °C
- COc1ccc(-c2cnc3[nH]cc(C(=O)NC4CCN(C)C4)c3n2)cc1OC (stereo not given) — higher, 193 to 194 °C
- O=Cc1cc2c(ccc3ccoc32)c2ccccc12 — lower, 164 to 166 °C
- O=C(CC1=CC(O)CC1=O)Oc1ccc2ccccc2c1 (stereo not given) — lower, 81 °C
- Cc1ccc2c(c1)C=Cn1c(n[nH]c1=O)C2 — higher, 232 to 234 °C
- C[C@H](CC(=O)c1ccc(C#N)cc1)C(=O)N1CCC(OCC(=O)OC(C)(C)C)CC1 — lower, 142 °C
- O=C(NCCO)c1cccc(-c2cccn3cc(Cc4cccc(C(F)(F)F)c4)nc23)c1 — lower, 136 to 137 °C
- COc1ccc(C(=O)Nc2ccc(C)c(C)c2)cc1NC(=S)Nc1cccc(C)c1 — lower, 155 to 160 °C
- Cc1cc2c(c3c1NC(=O)CC3(C)C)OC(CO)C2 (stereo not given) — lower, 165 to 166 °C
- O=c1[nH]c2ccccc2n1CCCN1CCN(c2n[nH]c3cc(F)ccc23)CC1 — higher, 236 to 238 °C
- CCCOC1CCC(=O)N1 (stereo not given) — lower, 52 to 54 °C
- CSc1cc(C)cc(C)c1C=NO — lower, 115 to 117 °C
- CC(C)c1cccc(C(C)C)c1N=C(Nc1c(C(C)C)cccc1C(C)C)ON=C1CCCCC1 — lower, 150 to 152 °C
- O=[N+]([O-])c1cc(OCCCl)ccc1Cl — lower, 46 to 48 °C
- O=C1CNC(=O)C(CCCCNC(=O)OCc2ccccc2)N1 (stereo not given) — higher, 210 °C
- Cc1ccc(S(=O)(=O)CCCCCC(C)(C(=O)OC(C)(C)C)C(=O)OC(C)(C)C)cc1 — lower, 36.5 to 38.5 °C
- COC(=O)c1ccc(Cc2cc3cc(Cl)ccc3n2S(=O)(=O)c2ccc(C(C)C)cc2)cc1F — lower, 127 °C
